# Laboratory results published in patent US6555692B1, “Preparation and use of bifunctional molecules having DNA sequence binding specificity” (California Institute of Technology, priority 1996, dated 2003).
# Legend:
# 5′-TGTCAAAGACA-3′ = assay: Recognition of 9-11 base pairs (Table 9); format: binding; conditions: 22° C. and pH 7.0
# Source text: (§1) Table 9 illustrates recognition of recognition of 9-11 base pairs by ImPyPy-X-ImPyPy-β-Dp.
# 5′-TGTCAAGACA-3′ = assay: Recognition of 9-11 base pairs (Table 9); format: binding; conditions: 22° C. and pH 7.0
# Source text: as §1
# 5′-gcggtTGTCAacccg-3′ = assay: Recognition of 9-11 base pairs (Table 9); format: binding; conditions: 22° C. and pH 7.0
# Source text: as §1
# 5′-TGTCAGACA-3′ = assay: Recognition of 9-11 base pairs (Table 9); format: binding; conditions: 22° C. and pH 7.0
# Source text: as §1
# 5′-AACCAAGTACTTGGTA-3′ = assay: Association constants, recognition of 16 base pairs; format: binding; conditions: for Specificity 5′-AACCAACTAGTTGGTA: Table 8, center mismatch; for Specificity 5′-AACCAAGTACTTGCGA: Table 8, edge mismatch; for Ka 5′-AACCAAGTACTTGGTA: Table 8, match site
# Source text: Table 8 illustrates recognition of 16 Base-Pairs by ImPyPyPy-X-ImImPy-γ-PyPyPy-β-Dp.
# 5′-AGTACT-3′ = assay: Quantitative DNase I footprint titration, 229 bp restriction fragment; format: binding
# Protocol: (§2) ImPyPyPy-γ-ImPyPyPy-β-Dp and ImPyPyPy-γ-PyPyPyPy-β-Dp were synthesized by solid phase methods and purified by reversed phase HPLC. Equilibrium association constants for match and mismatch six base pair binding sites on a 3′^32P-labeled 229 bp restricted fragment were determined by quantitative DNase I footprint titration experiments. […] The specificity of ImPyPyPy-γ-ImPyPyPy-β-Dp and ImPyPyPy-γ-PyPyPyPy-β-Dp for their respective match sites results from very small structural changes.
# 5′-AGTATT-3′ = assay: as above; format: binding
# Protocol: as §2
# 5′-TGCGCA-3′ = assay: DNase I footprint titration, pSES9hp fragment; format: binding; conditions: 5′-TGCGCA-3′ sequences
# Source text: The experimental target plasmid pSES9hp was constructed by hybridization of the inserts:
# The plasmid pSES9hp was linearized with EcoRI and PvuII and then treated with Klenow fragment, deoxyadenosine 5′-[α-^32P]triphosphate and thymidine 5′-[α-^32P]triphosphate for 3′ labeling. Alternatively, pSES9hp was linearized with EcoRI, treated with calf alkaline phosphatase, and then 5′ labeled with T4 polynucleotide kinase and deoxyadenosine 5′- [γ-^32P]triphosphate. The 5′ labeled fragment was then digested with PvuII. The labeled fragment (3′ or 5′) was loaded onto a 5% non-denaturing polyacrylamide gel, and the desired 282 base pair band was visualized by autoradiography and isolated. Chemical sequencing reactions were performed according to published methods. (Maxam, A. M. & Gilbert, W. S. (1980). Sequencing End-Labeled DNA with Base-Specific Chemical Cleavages. Methods Enzymol. 65, 499-560; Iverson, B. L. & Dervan, P. B. (1987). Adenine-specific DNA chemical sequencing reaction. […], 7823-7830.)
# [1] = tested on: 282 bp EcoRI/PvuII restriction fragment from plasmid pSES9hp (5′-TGGCCA-3′, 5′-TGCGCA-3′, 5′-TGGGGA-3′ sites); assay: Affinity cleaving, identification of binding orientation; conditions: 25 mM Tris-acetate, 10 mM NaCl, 100 μM/base pair calf thymus DNA, pH 7.0, 22° C.
# Protocol: Affinity cleavage assays (25 mM Tris-acetate, 10 mM NaCl, 100 μM/base pair calf thymus DNA, pH 7.0 and 22° C.) were performed in order to identify the binding orientations of the EDTA analogues of the three hairpin polyamides: ImImPyPy-γ-ImImPyPy-β-Dp-EDTA, ImPyImPy-γ-ImPyImPy-β-Dp-EDTA , and ImImImIm-γ-PyPyPyPy-β-Dp-EDTA.
# Depicted in FIG. 17 is a representative affinity cleaving experiment on a 3′-^32P-labeled 282 bp EcoRI/PvuII restriction fragment from plasmid pSES9hp. […] Lane 1, A reaction; lane 2, C reaction; lanes 3-5, 1 μM, 2 μM and 5 μM ImImPyPy-γ-ImImPyPy-β-Dp-EDTA (1-E); lanes 6-8, 1 μM, 2 μM and 5 μM ImPyImPy-γ-ImPyImPy-β-Dp-EDTA (2-E); lanes 9-11, 1 μM, 2 μM and 5 μM ImImImIm-γ-PyPyPyPy-β-Dp-EDTA (3-E); lane 12, intact DNA. All lanes contain 15 kcpm 3′-radiolabeled DNA, 25 mM Tris-acetate buffer (pH 7.0), 10 mM NaCl, and 100 μM/base pair calf thymus DNA. (Right) Affinity cleavage patterns for ImImPyPy-γ-ImImPyPy-β-Dp-EDTA and ImPyImPy-γ-ImPyImPy-β-Dp-EDTA at 1 μM concentration, and ImImImIm-γ-PyPyPyPy-β-Dp-EDTA at 5 μM concentration. Illustration of the 282 bp restriction fragment with the position of the sequence indicated. Bar heights are proportional to the […] at each band. Boxes represent equilibrium binding sites determined by the published model, and only sites that were quantitated by DNase I footprint titrations are boxed.
# 5′-TGTTA-3′ = conditions: cited from earlier work
molecule,measurement,setting,value
CN(C)CCCNC(=O)CCNC(=O)c1cc(NC(=O)c2cc(NC(=O)c3nc(NC(=O)CCCNC(=O)c4cc(NC(=O)c5cc(NC(=O)c6nccn6C)cn5C)cn4C)cn3C)cn2C)cn1C [ImPyPy-γ-ImPyPy-β-Dp],5′-TGTCAAAGACA-3′,5′-TGTCAAAGACA-3′,1 × 10^8
same,5′-TGTCAAGACA-3′,5′-TGTCAAGACA-3′,1 × 10^8
same,5′-gcggtTGTCAacccg-3′,5′-gcggtTGTCAacccg-3′,2 × 10^8
same,5′-TGTCAGACA-3′,5′-TGTCAGACA-3′,5 × 10^7
CN(C)CCCNC(=O)CCNC(=O)c1cc(NC(=O)c2cc(NC(=O)c3cc(NC(=O)CCCNC(=O)c4cc(NC(=O)c5nc(NC(=O)c6nc(NC(=O)CCCCNC(=O)c7cc(NC(=O)c8cc(NC(=O)c9cc(NC(=O)c%10nccn%10C)cn9C)cn8C)cn7C)cn6C)cn5C)cn4C)cn3C)cn2C)cn1C [ImPyPyPy-C5-ImImPy-γ-PyPyPy-β-Dp],Specificity 5′-AACCAACTAGTTGGTA,5′-AACCAAGTACTTGGTA-3′,>3
same,Specificity 5′-AACCAAGTACTTGCGA,5′-AACCAAGTACTTGGTA-3′,>3
same,Ka 5′-AACCAAGTACTTGGTA,5′-AACCAAGTACTTGGTA-3′,7 × 10^8
CN(C)CCCNC(=O)CCNC(=O)c1cc(NC(=O)c2cc(NC(=O)c3cc(NC(=O)CCCNC(=O)c4cc(NC(=O)c5nc(NC(=O)c6nc(NC(=O)CCCCCNC(=O)c7cc(NC(=O)c8cc(NC(=O)c9cc(NC(=O)c%10nccn%10C)cn9C)cn8C)cn7C)cn6C)cn5C)cn4C)cn3C)cn2C)cn1C [ImPyPyPy-C6-ImImPy-γ-PyPyPy-β-Dp],Specificity 5′-AACCAACTAGTTGGTA,5′-AACCAAGTACTTGGTA-3′,1
same,Specificity 5′-AACCAAGTACTTGCGA,5′-AACCAAGTACTTGGTA-3′,1
same,Ka 5′-AACCAAGTACTTGGTA,5′-AACCAAGTACTTGGTA-3′,1 × 10^8
CN(C)CCCNC(=O)CCNC(=O)c1cc(NC(=O)c2cc(NC(=O)c3cc(NC(=O)CCCNC(=O)c4cc(NC(=O)c5nc(NC(=O)c6nc(NC(=O)CCNC(=O)CCNC(=O)c7cc(NC(=O)c8cc(NC(=O)c9cc(NC(=O)c%10nccn%10C)cn9C)cn8C)cn7C)cn6C)cn5C)cn4C)cn3C)cn2C)cn1C [ImPyPyPy-β-β-ImImPy-γ-PyPyPy-β-Dp],Specificity 5′-AACCAACTAGTTGGTA,5′-AACCAAGTACTTGGTA-3′,1
same,Specificity 5′-AACCAAGTACTTGCGA,5′-AACCAAGTACTTGGTA-3′,1
same,Ka 5′-AACCAAGTACTTGGTA,5′-AACCAAGTACTTGGTA-3′,3 × 10^8
CN(C)CCCNC(=O)CCNC(=O)c1cc(NC(=O)c2cc(NC(=O)c3cc(NC(=O)c4nc(NC(=O)CCCNC(=O)c5cc(NC(=O)c6cc(NC(=O)c7cc(NC(=O)c8nccn8C)cn7C)cn6C)cn5C)cn4C)cn3C)cn2C)cn1C [ImPyPyPy-γ-ImPyPyPy-β-Dp],free energy difference,"5′-AGTACT-3′; N to C—H replacement, 5′-AGTACT-3′ complex",~2.5 kcali/mole
same,Kd,"5′-AGTACT-3′; match site 5′-AGTACT-3′, read-out: concentration at which the match site is bound",30 pM
same,lower affinity for single base pair mismatch site,5′-AGTACT-3′; mismatch 5′-AGTATT-3′ vs match 5′-AGTACT-3′,~100 fold
same,reduction of affinity of the polyamide•5′-AGTACT-3′ complex on replacing a single nitrogen atom with C—H,5′-AGTACT-3′; vs ImPyPyPy-γ-PyPyPyPy-β-Dp,~75 fold
CN(C)CCCNC(=O)CCNC(=O)c1cc(NC(=O)c2cc(NC(=O)c3cc(NC(=O)c4cc(NC(=O)CCCNC(=O)c5cc(NC(=O)c6cc(NC(=O)c7cc(NC(=O)c8nccn8C)cn7C)cn6C)cn5C)cn4C)cn3C)cn2C)cn1C [ImPyPyPy-γ-PyPyPyPy-β-Dp],loss in binding energy,"5′-AGTATT-3′; C—H to N replacement, 5′-AGTATT-3′ complex",~1.3 kcal/mol
same,Kd,"5′-AGTATT-3′; match site 5′-AGTATT-3′, read-out: concentration at which the match site is bound",300 pM
same,lower affinity for single base pair mismatch site,5′-AGTATT-3′; mismatch 5′-AGTACT-3′ vs match 5′-AGTATT-3′,~10 fold
same,reduction of affinity of the polyamide•5′-AGTATT-3′ complex on replacing a C—H with N,5′-AGTATT-3′; vs ImPyPyPy-γ-ImPyPyPy-β-Dp,~10 fold
Im-β-ImPy-γ-Im-β-ImPy-β-Dp [Im-βImPy-γ-Im-β-ImPy-β-Dp],affinity (in words),5′-TGCGCA-3′,subnanomolar affinities
ImImImIm-γ-PyPyPyPy-β-Dp-EDTA,binding orientation by affinity cleaving,[1],single orientation
ImPyPy-γ-PyPyPy-Dp,sequence-specificity versus single base pair mismatch sites,5′-TGTTA-3′,30 fold
cyclo-(ImPyPy-γ-PyPyPy-γ-),equilibrium association constant Ka,"5′-TGTTA-3′; 5′-TGTTA-3′ target site, prior art",2.9e+09 M⁻¹
same,increase in Ka relative to the corresponding hairpin polyamide ImPyPy-γ-PyPyPy,5′-TGTTA-3′; 5′-TGTTA-3′,40 fold
same,sequence-specificity versus single base pair mismatch sites,5′-TGTTA-3′,2 fold
